Data from the supplement of paper PMC10307832.

Assays:
Experiment in all cases: relative viability (nuclei count vs DMSO), 5 days (fraction); higher = more cells survive
Pemetrexed + Vorinostat = compound: Nc1nc2[nH]cc(CCc3ccc(C(=O)N[C@@H](CCC(=O)O)C(=O)O)cc3)c2c(=O)[nH]1 [Pemetrexed] + O=C(CCCCCCC(=O)Nc1ccccc1)NO [Vorinostat] (partner 1 µM)
Summary of the method: (§1)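 One day after seeding in 1536-well plates, lung cancer cell lines were dosed by pin tool. Dosing was either single-drug or a fixed anchor-drug dose plus five library-drug doses (not always all listed) in √10 steps. After 5 days, nuclei were stained in one fix-and-stain step and counted on 4× images, and relative viability is the nuclei count of treated wells over that of vehicle wells, given as the median of duplicate plates.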

Pemetrexed + Trametinib = compound: Nc1nc2[nH]cc(CCc3ccc(C(=O)N[C@@H](CCC(=O)O)C(=O)O)cc3)c2c(=O)[nH]1 [Pemetrexed] + CC(=O)Nc1cccc(-n2c(=O)n(C3CC3)c(=O)c3c(Nc4ccc(I)cc4F)n(C)c(=O)c(C)c32)c1 [Trametinib] (partner 0.02 µM)
Summary of the method: as §1

Pemetrexed + Phenformin = compound: Nc1nc2[nH]cc(CCc3ccc(C(=O)N[C@@H](CCC(=O)O)C(=O)O)cc3)c2c(=O)[nH]1 [Pemetrexed] + N=C(N)NC(=N)NCCc1ccccc1 [Phenformin] (partner 250 µM)
Summary of the method: as §1

Idelalisib + Navitoclax = compound: CC[C@H](Nc1ncnc2[nH]cnc12)c1nc2cccc(F)c2c(=O)n1-c1ccccc1 [Idelalisib] + CC1(C)CCC(c2ccc(Cl)cc2)=C(CN2CCN(c3ccc(C(=O)NS(=O)(=O)c4ccc(N[C@H](CCN5CCOCC5)CSc5ccccc5)c(S(=O)(=O)C(F)(F)F)c4)cc3)CC2)C1 [Navitoclax] (partner 0.5 µM)
Summary of the method: as §1

Cell Line | relative viability (Pemetrexed + Vorinostat; first compound 0.002 µM) | relative viability (Pemetrexed + Vorinostat; first compound 0.006325 µM) | relative viability (Pemetrexed + Vorinostat; first compound 0.02 µM) | relative viability (Pemetrexed + Vorinostat; first compound 0.06325 µM) | relative viability (Pemetrexed + Vorinostat; first compound 0.2 µM) | relative viability (Pemetrexed + Trametinib; first compound 0.002 µM) | relative viability (Pemetrexed + Trametinib; first compound 0.006325 µM) | relative viability (Pemetrexed + Trametinib; first compound 0.02 µM) | relative viability (Pemetrexed + Trametinib; first compound 0.06325 µM) | relative viability (Pemetrexed + Trametinib; first compound 0.2 µM) | relative viability (Pemetrexed + Phenformin; first compound 0.002 µM) | relative viability (Pemetrexed + Phenformin; first compound 0.006325 µM) | relative viability (Pemetrexed + Phenformin; first compound 0.02 µM) | relative viability (Pemetrexed + Phenformin; first compound 0.06325 µM) | relative viability (Pemetrexed + Phenformin; first compound 0.2 µM) | relative viability (Idelalisib + Navitoclax; first compound 0.04 µM) | relative viability (Idelalisib + Navitoclax; first compound 0.1265 µM) | relative viability (Idelalisib + Navitoclax; first compound 0.4 µM) | relative viability (Idelalisib + Navitoclax; first compound 1.265 µM) | relative viability (Idelalisib + Navitoclax; first compound 4 µM)
NCI-H661 | 0.761 | 0.72 | 0.821 | 0.8 | 0.745 | 0.659 | 0.524 | 0.705 | 0.549 | 0.571 | 0.288 | 0.28 | 0.286 | 0.276 | 0.273 | – | – | – | – | –
CAL-12T | 0.634 | 0.683 | 0.852 | 0.704 | 0.821 | 0.332 | 0.329 | 0.328 | 0.347 | 0.331 | 0.502 | 0.477 | 0.612 | 0.58 | 0.608 | 1.24 | 1.32 | 1.14 | 1.29 | 1.06
HARA | 0.517 | 0.611 | 0.512 | 0.595 | 0.231 | 0.592 | 0.395 | 0.797 | 0.41 | 0.17 | 0.402 | 0.447 | 0.508 | 0.297 | 0.137 | 1.2 | 1.11 | 1.17 | 1.16 | 1.09
NCI-H596 | 0.707 | 0.577 | 0.576 | 0.468 | 0.385 | 0.886 | 0.869 | 0.663 | 0.643 | 0.5 | 0.766 | 0.702 | 0.775 | 0.751 | 0.565 | 1.18 | 0.931 | 0.881 | 0.973 | 0.892
LU99A | 0.488 | 0.464 | 0.495 | 0.466 | 0.385 | 0.496 | 0.451 | 0.572 | 0.467 | 0.538 | 0.784 | 0.93 | 0.848 | 0.779 | 0.786 | 0.835 | 0.894 | 0.719 | 0.91 | 0.827
LC-2-ad | 0.657 | 0.671 | 0.663 | 0.319 | 0.27 | 0.915 | 0.856 | 0.87 | 0.82 | 0.306 | 0.518 | 0.567 | 0.492 | 0.335 | 0.374 | 0.479 | 0.4 | 0.395 | 0.417 | 0.306
NCI-H1650 | 0.521 | 0.671 | 0.634 | 0.443 | 0.234 | 0.496 | 0.534 | 0.6 | 0.296 | 0.229 | 0.415 | 0.39 | 0.408 | 0.309 | 0.231 | 1.15 | 1.39 | 1.08 | 1.15 | 0.748
NCI-H1915 | 0.419 | 0.484 | 0.526 | 0.463 | 0.549 | 0.287 | 0.294 | 0.248 | 0.306 | 0.283 | 0.358 | 0.39 | 0.373 | 0.357 | 0.381 | 0.797 | 0.772 | 0.812 | 0.78 | 0.764
ABC-1 | 1.07 | 1.68 | 1.18 | 1.33 | 1.1 | – | – | – | – | – | 0.283 | 0.24 | 0.26 | 0.283 | 0.249 | – | – | – | – | –
HCC-44 | 0.972 | 1.11 | 1.14 | 1.11 | 1.13 | 0.946 | 1.05 | 1.14 | 1.09 | 1.04 | 0.129 | 0.23 | 0.187 | 0.224 | 0.207 | 1.01 | 0.925 | 0.871 | 1.07 | 0.927
HCC-78 | – | 0.447 | 0.401 | 0.294 | 0.328 | – | 0.671 | 0.676 | 0.382 | 0.356 | 0.446 | 0.694 | 0.599 | 0.361 | 0.255 | 0.762 | 0.648 | 0.682 | 0.797 | 0.505
LXF-289 | 0.625 | 0.758 | 0.795 | 0.74 | 0.718 | 0.685 | 0.673 | 0.729 | 0.676 | 0.637 | 0.497 | 0.504 | 0.525 | 0.52 | 0.479 | 0.961 | 0.948 | 0.912 | 1.02 | 0.97
201T | 0.867 | 0.971 | 1.03 | 1.03 | 0.848 | 0.745 | 0.713 | 0.706 | 0.735 | 0.724 | 0.428 | 0.494 | 0.479 | 0.426 | 0.403 | 1.17 | 1.13 | 1.25 | 1.24 | 1.1
NCI-H1734 | 0.794 | 0.725 | 0.931 | 0.778 | 0.708 | 0.603 | 0.623 | 0.679 | 0.627 | 0.524 | 0.459 | 0.343 | 0.458 | 0.373 | 0.386 | 0.746 | 0.841 | 0.654 | 0.724 | 0.584
NCI-H1623 | – | – | – | – | – | – | – | – | – | – | 0.575 | 0.588 | 0.564 | 0.627 | 0.598 | – | – | – | – | –
NCI-H2126 | 0.638 | 0.719 | 0.777 | 0.798 | 0.688 | 0.55 | 0.522 | 0.591 | 0.567 | 0.533 | 0.536 | 0.555 | 0.574 | 0.507 | 0.486 | 0.896 | 0.861 | 0.813 | 0.805 | 0.789
LOU-NH91 | 0.878 | 0.906 | 1.02 | 0.591 | 0.395 | 0.754 | 0.759 | 0.782 | 0.682 | 0.638 | 0.691 | 0.733 | 0.739 | 0.572 | 0.404 | 0.741 | 0.699 | 0.667 | 0.463 | 0.617
